Like-named read-outs stand apart in the source and are kept apart here. Some results are limits rather than exact numbers.

Test [1] concerns the target T1, human MERTK cytoplasmic domain (Homo sapiens, UniProt Q12866).
T1 construct: human MERTK cytoplasmic domain (Carna Biosciences 08-108); purchased Carna Biosciences 08-108
Briefly: biochemical. The procedure:
Assay 1a—MERTK HTRF KinEASE-TK Assay
The enzymatic reaction was carried out for 30 min at room temperature. 10 μL TK Antibody-Cryptate/Streptavidin-XL665 (Cisbio 610SAXLG) was then added for 60 min, including EDTA containing detection buffer (Cisbio 62SDBRDF) to stop the reaction.

Test [2] concerns the target T2, human AXL cytoplasmic domain (Homo sapiens, UniProt P30530).
T2 construct: human AXL cytoplasmic domain (Thermo Fisher A31515); purchased Thermo Fisher A31515
T2 sequence (P30530 473-894 limits assumed): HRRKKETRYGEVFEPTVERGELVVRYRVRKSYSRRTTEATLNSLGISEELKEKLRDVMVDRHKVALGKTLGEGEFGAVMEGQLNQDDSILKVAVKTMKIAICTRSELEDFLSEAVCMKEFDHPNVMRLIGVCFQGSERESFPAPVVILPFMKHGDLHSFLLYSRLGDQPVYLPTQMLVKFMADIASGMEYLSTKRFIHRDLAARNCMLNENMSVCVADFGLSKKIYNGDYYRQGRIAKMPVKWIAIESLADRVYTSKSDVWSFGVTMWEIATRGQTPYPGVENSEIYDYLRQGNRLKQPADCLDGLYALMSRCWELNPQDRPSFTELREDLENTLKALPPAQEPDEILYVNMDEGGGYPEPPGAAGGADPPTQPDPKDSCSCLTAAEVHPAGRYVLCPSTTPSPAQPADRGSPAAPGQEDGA
Briefly: Assay 1b AXL HTRF KinEASE-TK assay. The test is classed as biochemical. The procedure: Assay 1b—AXL HTRF KinEASE-TK Assay
Compound inhibition of human AXL cytoplasmic domain (Thermo Fisher A31515) enzymatic activity was tested via the HTRF KinEASE-tyrosine kinase (TK) kit (Cisbio 62TK0PEC). Experiments were performed in 20 μl enzymatic buffer (Cisbio 62EZBFDD) supplemented with 5 mM MgCl2, 1 mM MnCl2, 1 mM DTT, 50 nM SEB (Cisbio, 61SEBALB), with 5 nM of AXL and the test compounds of interest. […] The enzymatic reaction was carried out for 30 min at room temperature. 10 μL TK Antibody-Cryptate/Streptavidin-XL665 (Cisbio 610SAXLG) was then added for 60 min, including EDTA containing detection buffer (Cisbio 62SDBRDF) to stop the reaction. The plate was read on a BMG Pherastar FSX using a HTRF 337/620/665 optical module to excite the terbium donor at 337 nm, and record donor emission at 620 nm and acceptor fluorophore emission at 665 nm. From this the FRET ratio (acceptor 665 nm/donor 620 nm) for each data point was calculated. […] Competition curves were then fit to a 4 parameter logistic equation including a variable slope factor to determine the IC50 (compound concentration that inhibits 50% of AXL activity).
On the technique in general: TR-FRET usually uses a lanthanide donor and a delayed reading to cut background.

Test [3] deals with T3, Ba/F3 Pro B-cell line expressing TEL-human MERTK fusion domain (Homo sapiens, UniProt Q12866).
T3 sequence (Q12866 587-858 limits assumed): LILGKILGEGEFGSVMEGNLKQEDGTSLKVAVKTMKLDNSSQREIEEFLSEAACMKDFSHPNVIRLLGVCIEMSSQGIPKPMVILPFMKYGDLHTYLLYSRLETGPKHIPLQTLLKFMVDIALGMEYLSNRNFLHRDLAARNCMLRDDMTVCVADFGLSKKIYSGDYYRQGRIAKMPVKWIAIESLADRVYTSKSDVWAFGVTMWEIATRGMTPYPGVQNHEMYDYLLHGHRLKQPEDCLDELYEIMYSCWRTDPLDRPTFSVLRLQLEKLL
It counts as cell-based. The procedure: (§1) Assay 5—Ba/F3 Cell Survival Assays.
(§2) The inhibitory potencies of compounds were assessed in a Ba/F3 cell survival assay, using the Ba/F3 Pro B-cell line, recombinantly expressing a BCR-human AXL kinase domain fusion protein (pACD320/AXL, Advanced Cellular Dynamics Inc), TEL-human MERTK fusion domain (pACD1000/MERTK, Advanced Cellular Dynamics Inc), TEL-human Tyro3 fusion domain (pACD1000/TYRO3, Advanced Cellular Dynamics Inc), or control TEL-none (ACD320, Advanced Cellular Dynamics Inc) BRC-none constructs (ACD1000, Advanced Cellular Dynamics Inc). 10 ng/mL recombinant murine IL3 (R&D, 403-ML-010) was included in the media when propagating negative control TEL-none or BCR-none lines only. […] The final assay DMSO concentration was 0.25%. Compound incubations were conducted for 48 h at 37° C./5% CO2, after which cell plate was equilibrated at room temperature for 20 minutes prior to assessing viability. 15 μl of Promega CellTiter-Glo reagent (G7572) was added to each well for 2 min on an orbital shaker to induce cell lysis.
(§3) The plate was then equilibrated for 5 min at room temperature and luminescence read on a BMG Pherastar FSX using the LUM plus optic module. […] Competition curves were then fit to a 4 parameter logistic equation including a variable slope factor to determine the IC50 (compound concentration causing a half-maximal inhibition of cell survival).

The target of test [4] is T4, Ba/F3 Pro B-cell line expressing BCR-human AXL kinase domain fusion protein (Homo sapiens, UniProt P30530).
T4 construct: P11274 (Breakpoint cluster region protein)
T4 sequence (P30530 536-807 limits assumed): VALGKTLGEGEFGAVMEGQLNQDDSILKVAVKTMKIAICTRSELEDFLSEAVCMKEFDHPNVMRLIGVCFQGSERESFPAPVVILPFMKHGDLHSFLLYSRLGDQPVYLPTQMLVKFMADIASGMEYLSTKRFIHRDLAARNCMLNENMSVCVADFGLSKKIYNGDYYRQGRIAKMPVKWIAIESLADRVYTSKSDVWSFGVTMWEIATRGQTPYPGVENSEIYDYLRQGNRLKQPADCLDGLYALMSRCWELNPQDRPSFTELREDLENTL
Briefly: Assay 5 Ba/F3 cell survival assay, BCR-Axl. It counts as cell-based. The conditions noted are these: read-out: BCR-Axl Ba/F3 IC50, 48 h, CellTiter-Glo. The procedure: as §1, §2, §3
For orientation: Cellular ATP, detected with luciferase, serves as a proxy for viable cell number.

Test [5] concerns the target T5, Ba/F3 Pro B-cell line expressing TEL-human Tyro3 fusion domain (Homo sapiens, UniProt Q06418).
T5 sequence (Q06418 518-790 limits assumed): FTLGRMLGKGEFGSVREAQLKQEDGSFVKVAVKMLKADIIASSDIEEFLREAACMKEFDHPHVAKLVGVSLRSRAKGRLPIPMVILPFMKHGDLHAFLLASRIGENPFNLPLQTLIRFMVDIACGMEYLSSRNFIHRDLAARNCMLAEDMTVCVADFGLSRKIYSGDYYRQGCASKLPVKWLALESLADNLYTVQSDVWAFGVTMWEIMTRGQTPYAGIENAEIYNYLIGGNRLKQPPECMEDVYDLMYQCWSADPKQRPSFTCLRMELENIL
The test is classed as cell-based. The conditions noted are these: cell survival, 48 h, CellTiter-Glo. The protocol:
as §1
as §2, with “only. Cells were maintained in RMPI 1640 (Corning 15-040-CV) culture media containing 10% heat inactivated semi-synthetic FBS (RMBIO FGR-BBT), 2 mM L-Glutamine (Sigma, G7513), 100 IU/mL Penicillin-[…] Streptomycin (Sigma, P4333), and 500 ng/mL Puromycin (Sigma, P8833). Experiments were performed in 50 μl growth media, including the test compounds of interest, and dispensing 5000 cells/well in logarithmic-phase growth into a 384 well white Optiplate (Perkin Elmer 6007299).” for “only.”
The plate was then equilibrated for 5 min at room temperature and luminescence read on a BMG Pherastar FSX using the LUM plus optic module. Data were normalised to measurements in the absence of competing compound (0% inhibition). Competition curves were then fit to a 4 parameter logistic equation including a variable slope factor to determine the IC50 (compound concentration causing a half-maximal inhibition of cell survival).

The mark [6] stands for this setting: 30 uM ATP, read-out: Assay 1a Mer IC50 30 uM ATP.
[7] abbreviates: cell survival, 48 h, CellTiter-Glo; read-out: TEL-MERTK Ba/F3 IC50.
[8] abbreviates: read-out: TEL-MERTK Ba/F3 IC50; cell survival, 48 h, CellTiter-Glo.

T1 sequence (Q12866 527-999): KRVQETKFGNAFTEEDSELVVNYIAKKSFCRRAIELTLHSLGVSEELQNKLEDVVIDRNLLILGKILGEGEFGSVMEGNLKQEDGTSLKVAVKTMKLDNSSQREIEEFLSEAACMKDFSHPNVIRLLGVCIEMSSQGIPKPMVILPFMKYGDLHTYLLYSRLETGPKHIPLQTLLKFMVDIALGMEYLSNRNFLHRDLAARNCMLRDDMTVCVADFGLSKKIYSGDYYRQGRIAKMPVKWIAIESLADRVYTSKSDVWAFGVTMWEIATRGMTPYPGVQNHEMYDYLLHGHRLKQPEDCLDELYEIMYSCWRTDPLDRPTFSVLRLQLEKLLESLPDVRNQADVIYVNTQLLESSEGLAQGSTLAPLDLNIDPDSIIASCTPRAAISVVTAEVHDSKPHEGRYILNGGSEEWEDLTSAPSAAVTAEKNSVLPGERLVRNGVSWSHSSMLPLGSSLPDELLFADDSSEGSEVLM

For `CN1CCC(c2cc3c(Oc4ccc(NC(=O)c5cccn(-c6ccc(F)cc6)c5=O)nc4)ccnc3cn2)CC1` [Example 16, 1-(4-Fluorophenyl)-N-[5-[[6-(1-methyl-4-piperidyl)-1,7-naphthyridin-4-yl]oxy]-2-pyridyl]-2-oxo-pyridine-3-carboxamide], the IC50 was found to be 19 nM in test [1] (setting [6]); 264 nM in test [2]; 14 nM in test [3] (setting [7]); 22 nM in test [4]; 931 nM in test [5].
The matching figures for `CC(C)n1cc(C(=O)Nc2ccc(Oc3ccnc4cnc(C(=O)NC5CCN(C)CC5)cc34)cc2)c(=O)n(-c2ccc(F)cc2)c1=O` [Example 8.2, 4-[4-[[3-(4-fluorophenyl)-1-isopropyl-2,4-dioxo-pyrimidine-5-carbonyl]amino]phenoxy]-N-(1-methyl-4-piperidyl)-1,7-naphthyridine-6-carboxamide]: 10 nM, 10 nM, 30 nM, 3 nM and 120 nM.
As to `O=C(Nc1ccc(Oc2ccnc3cnc(N4CCNCC4)cc23)cn1)c1cccn(-c2ccc(F)cc2)c1=O` [Example 10, 1-(4-fluorophenyl)-2-oxo-N-[5-[(6-piperazin-1-yl-1,7-naphthyridin-4-yl)oxy]-2-pyridyl]pyridine-3-carboxamide], the IC50 is 5 nM in test [1] (setting [6]); 29 nM in test [2]; 24 nM in test [3] (setting [7]); 28 nM in test [4]; 148 nM in test [5].
`CC(C)C(=O)N1CCC(c2cc3c(Oc4ccc(NC(=O)c5cccn(-c6ccc(F)cc6)c5=O)nc4)ccnc3cn2)CC1` [Example 22, 1-(4-fluorophenyl)-N-[5-[[6-[1-(2-methylpropanoyl)-4-piperidyl]-1,7-naphthyridin-4-yl]oxy]-2-pyridyl]-2-oxo-pyridine-3-carboxamide]: the IC50 was 1 nM in test [1]; 5 nM in test [2]; 10 nM in test [3] (setting [8]); 10 nM in test [4]; over 2500 nM in test [5].
`CN1CCC(NC(=O)c2cc3c(Oc4ccc(NC(=O)c5cccn(-c6ccc(F)cc6)c5=O)nc4)ccnc3cn2)CC1` [Example 11, 4-[[6-[[1-(4-fluorophenyl)-2-oxo-pyridine-3-carbonyl]amino]-3-pyridyl]oxy]-N-(1-methyl-4-piperidyl)-1,7-naphthyridine-6-carboxamide]: the IC50 in test [1] (setting [6]) is 4 nM; in test [2], 77 nM; in test [3] (setting [7]), 52 nM; in test [4], 32 nM; in test [5], 251 nM.
As for `CC(C)n1cc(C(=O)Nc2ccc(Oc3ccnc4cnc(N5CCN(C6COC6)CC5)cc34)cn2)c(=O)n(-c2ccc(F)cc2)c1=O` [Example 20.1, 3-(4-fluorophenyl)-1-isopropyl-N-[5-[[6-[4-(oxetan-3-yl)piperazin-1-yl]-1,7-naphthyridin-4-yl]oxy]-2-pyridyl]-2,4-dioxo-pyrimidine-5-carboxamide], the IC50 was found to be 5 nM in test [1]; 5 nM in test [2]; 27 nM in test [3] (setting [8]); 15 nM in test [4]; 452 nM in test [5].
Turning to `CC(C)(C)OC(=O)N1CCC(c2cc3c(Oc4ccc(NC(=O)c5cccn(-c6ccc(F)cc6)c5=O)nc4)ccnc3cn2)C1` (centres unmarked) [Example 16.1, tert-butyl 3-[4-[[6-[[1-(4-fluorophenyl)-2-oxo-pyridine-3-carbonyl]amino]-3-pyridyl]oxy]-1,7-naphthyridin-6-yl]pyrrolidine-1-carboxylate], the IC50 in test [1] (setting [6]) turned out to be 4 nM; in test [2] it was 27 nM; in test [3] (setting [7]), 70 nM; in test [4], 76 nM; in test [5], 1930 nM.

For the origin of these results see patent publication US20230203029A1 (priority 2020, published 2023).
